Reference: patent US10837957B2, “In vitro model for pathological or physiologic conditions” (HemoShear, LLC, priority 2012, dated 2020)

How the values were obtained:
[1] = tested on: endothelial cell/smooth muscle cell co-cultures; assay: HDL in hemodynamic environment; format: cell-based; details: HDL 45 μg/ml or 90 μg/ml, hemodynamic shear stress
Description: An additional component of plasma cholesterol distinct from nLDL or oxLDL is HDL. […] HDL was then added to the upper volume at a concentration of 45-1,000 μg/ml. This broad range reflects the broad range of HDL concentrations that can exist within human patients. HDL concentrations in individuals at risk for vascular disease are generally less than about 300 μg/ml, while HDL concentrations in healthy individuals range from greater than about 300 μg/ml up to about 2,000 μg/ml in healthy exercising patients.
In additional experiments, endothelial cell/smooth muscle cell co-cultures plated as described above were preconditioned for 16 hours with hemodynamic shear stress. From hours 16-24 the cells were additionally primed with 0.05 ng/ml TNFα and 50 μg/ml of oxLDL (compared to a vehicle control containing 50 μg/ml nLDL) in the upper volume. At 24 hours, 45 μg/ml or 90 μg/ml HDL was added to the media in the upper volume and hemodynamic shear stress was continued for the next 24 hours (hours 24-48).

[2] = tested on: endothelial cells and smooth muscle cells; assay: ANG2 in hemodynamic environment: gene array analysis; format: cell-based; details: ANG2 10 nM (10.46 ng/ml) vs DMSO vehicle; healthy and atheroprone
Description: ANG2 at a concentration of 10 nM (10.46 ng/ml) or a DMSO vehicle control (VEH) was added to the upper volume and RNA was collected for gene array analysis.

[3] = tested on: endothelial cells and smooth muscle cells; assay: oxLDL in hemodynamic environment: gene array, gene, protein and cytokine expression in co-culture; format: cell-based; details: for number of genes regulated as compared to nLDL: atheroprone, 50 μg/ml oxLDL vs 50 μg/ml nLDL
Description: Following 16-24 hours of shear stress preconditioning with atheroprotective or atheroprone hemodynamic forces, oxLDL was added to upper volume (containing the endothelial cells) at a concentration of 10-50 μg/ml (FIG. 5). In devices not receiving oxLDL, nLDL was added to the upper volume at the same concentration and used as a vehicle control. This concentration of oxLDL is similar to plasma concentrations of oxLDL observed in patients with cardiovascular disease. Shear stress application was continued for an additional 24 hours in the presence of oxLDL.
(§1) Five different donor pairs were used to analyze the oxLDL (50 μg/ml) response compared to nLDL (50 μg/ml) within the atheroprone hemodynamic environment in endothelial cells and smooth muscle cells. […] Significant genes were considered using an FDR of 0.01. Gene expression results are reported as the relative expression of the gene as compared to the expression of β-2 microglobulin (B2M). Protein expression results are reported as the relative expression of the protein as compared to the expression of actin. Activity of NFκB was assessed using an adenovirus NFκB-luciferase (Ad-NFKB-luc) reporter infected in ECs and SMCs.

NFκB = assay: Adenovirus NFκB-luciferase reporter in ECs and SMCs; format: cell-based
Description: as §1

endothelial cells [4] = assay: oxLDL and TNFα in hemodynamic environment: RT-PCR gene expression; format: cell-based; details: atheroprone
Description: To emulate more inflammatory stages of atherosclerosis, it is desirable to combine multiple circulating factors to better emulate the complexity found within human blood vessels. […] The media in the upper volume was then exchanged for media containing 0.05 ng/ml TNFα and 50 μg/ml of oxLDL. Media containing only 50 μg/ml of nLDL was used as a control.
Following 24 hours of shear stress preconditioning with atheroprotective or atheroprone hemodynamic forces, 50 μg/ml of oxLDL and 0.05 ng/ml of TNFα were added to upper volume (containing the endothelial cells). This concentration of TNFα is similar to plasma concentrations of TNFα observed in patients with cardiovascular disease. In devices not receiving oxLDL, nLDL was added to the upper volume at the same concentration and used as a vehicle control. Shear stress application was continued for an additional 24 hours in the presence of TNF-a and oxLDL (see FIG. 5). Gene expression analysis was performed using RT-PCR.

endothelial cells [5] = assay: Static monoculture thrombosis assay (A488-fibrin deposition by confocal microscopy); format: cell-based, human; details: static conditions; for fibrin deposition, mean fluorescence intensity: 4 hours
Description: (§2) Human endothelial cells were co-cultured with or without smooth muscle cells in the presence or absence of human-derived, region-specific hemodynamics. Endothelial cells were exposed to TNFα at various concentrations and incubated in human, platelet-free plasma supplemented by ALEXA FLUOR 488 (A488, a fluorescent dye)-labeled fibrinogen. Conversion of A488-fibrinogen to A488-fibrin and deposition on the endothelium was quantified by confocal microscopy.
For static monocultures of endothelial cells, endothelial cells were plated at 100,000 cells/cm^2 on coverslips and allowed to adhere for 24 hours. After 24 hours, media was exchanged with media containing 0 ng/ml, 1 ng/ml, 10 ng/ml, or 20 ng/ml TNFα. Cells were incubated for 4 hours at 37° C. Following incubation, media was removed and cells were washed twice with PBS. Cells were then incubated an additional 15 minutes at 37° C. with Human Platelet Free Plasma (PFP) supplemented with 37.5 μg/mL ALEXA-488 human fibrinogen, 20 μg/mL corn trypsin inhibitor, and 10 mM calcium. This protocol is depicted in FIG. 1A. After 15 minutes, the cells were fixed with 4% paraformaldehyde (PFA) and stained with 0.5 nM SYT083 (a fluorescent nucleic acid stain) in 10 mM Tris, 1 mM EDTA buffer for 45 minutes. Coverslips were mounted onto coverglass using FLUOROMOUNT-G (a mounting agent) and imaged.

[6] = tested on: Tissue Factor Pathway Inhibitor (TFPI); assay: Expression of genes relevant to thrombosis in co-cultures under hemodynamic flow; format: cell-based, human; details: TNFα stimulation; both endothelial and smooth muscle cells
Source text: FIG. 2B depicts a heat map of relative gene expression in endothelial and smooth muscle cells (grown under atheroprone or atheroprotective conditions; see FIG. 2A) of several genes relevant to thrombosis. The relative changes in gene expression of Tissue Factor (F3) and Thrombomodulin (THBD) are presented below the heat map. Atheroprone hemodynamics up-regulate Tissue Factor (F3) compared to atheroprotective shear stress. […] In addition, TNFα stimulation reduces Tissue Factor Pathway Inhibitor (TFPI) in both endothelial and smooth muscle cells.

[7] = tested on: Endothelial/smooth muscle cell co-cultures; assay: Coculture thrombosis assay with shear stress, Protocol A (fibrin deposition); format: cell-based, human
Description: as §2
Following 24 hours of shear stress application (atheroprone or atheroprotective), the media was supplemented with TNFα at a concentration of 0.05 ng/mL or 0.10 ng/mL and shear stress was continued for an additional 24 hours, as shown in FIG. 3A. Media was then removed from both the upper and lower chambers, and both the endothelial cells and smooth muscle cells are washed twice with PBS. Endothelial cells were then incubated for 15 minutes at 37° C. with PFP supplemented with 37.5 μg/mL ALEXA-488 human fibrinogen, 20 μg/mL corn trypsin inhibitor, and 10 mM calcium, and fixed and imaged as described above for monocultures.

endothelial cells [8] = assay: TNFα in hemodynamic environment: inflammatory gene expression; format: cell-based; details: 0.1-1 ng/ml TNFα, atheroprone hemodynamic forces; not seen at same levels in static
Description: Following 24 hours of shear stress preconditioning with atheroprotective or atheroprone hemodynamic forces, TNFα was added to upper volume (containing the endothelial cells) at a concentration of 0.05-1 ng/ml (see FIG. 5). This concentration of TNFα is similar to plasma concentrations of TNFα observed in patients with cardiovascular disease. Shear stress application was continued for an additional 24 hours in the presence of TNFα.

hepatocytes [9] = assay: In vitro fatty liver model: lipid accumulation (Nile red, Oil Red O, total triglycerides); format: cell-based, rat; details: 1.5 μM pioglitazone, high insulin/glucose media
Description: Samples were then blocked in 5% goat serum, 0.2% blotting grade non-fat dry milk blocker, and 1% BSA in PBS for 45 minutes. The samples were then washed thrice in 0.1% BSA in PBS and incubated with 1:5000 dilution of Nile red (1 mM stock), 1:1000 DRAQS (a fluorescent DNA dye; Cell Signalling), 1:500 ALEXA FLUOR 488 conjugated phalloidin (Life Technologies), and 1% BSA in PBS for thirty minutes and protected from light. The samples were washed in 0.1% BSA in PBS thrice for five minutes each and mounted on glass cover slips using PROLONG GOLD antifade mounting media (an antifade reagent; Invitrogen). The samples were imaged on a Nikon C1+ Confocal System microscope. Oil Red O Assay: Accumulation of intracellular lipids within hepatocytes was assessed by adapting and modifying a commercially available Steatosis Colorimetric Assay Kit (Cayman Chemical). At the end of the culture period, 2 cm^2 sized porous membrane segments containing the hepatocytes from devices under healthy and steatotic conditions were washed with PBS and fixed in 4% paraformaldehyde for 30 minutes. […] The solution was then transferred to clear 96-well plates and absorbance was read at 490-520 nm in a spectrophotometer. Measurement of Total Triglycerides: Triglyceride content was assessed using a commercially available colorimetric assay kit (Cayman Triglyceride Colorimetric Assay Kit, Cat #10010303). […]

hepatocytes [10] = assay: In vitro fatty liver model: RT-PCR of metabolic and lipid pathway genes; format: cell-based, rat; details: 1.5 μM pioglitazone, high insulin/glucose disease conditions
cytochrome p450 1A/1B = assay: Cytochrome p450 activity assay (P450-GLO) in hepatocytes, induction
Description: (§3) Porous membrane segments roughly 2 cm^2 in area were excised and transferred to standard 24-well plates alongside corresponding static cultures. The cells were incubated with 500 μl of hepatocyte media containing substrates from commercially available P450-GLO kits (kits for luminescent cytochrome p450 assays) at the manufacturer-recommended concentrations. After 4 hours, the media was transferred to 96-well plates and assayed for luminescent metabolites to reflect cytochrome p450 activity as per the manufacturer protocol.
(§4) After 48 hours, on day 7, segments of the porous membrane from the devices containing hepatocytes cultured under controlled hemodynamics that were roughly 2.0 cm^2 in area were excised and transferred to standard 24-well plates and treated with substrates for the Cyp p450 enzymes in parallel to corresponding static cultures treated with the different agents. Cytochrome p450 assays were done on day 7 using commercially available P450-GLO kits. After 4 hours the media was transferred to 96-well plates and assayed for luminescent metabolites to reflect cytochrome p450 activity.

[11] = tested on: endothelial cells and smooth muscle cells; assay: Aldosterone in hemodynamic environment: gene array analysis; format: cell-based; details: aldosterone 1 mM vs vehicle; healthy and atheroprone
Description: Aldosterone at a concentration of 1 mM or a vehicle control (VEH) was added to the upper volume and RNA was collected for gene array analysis.

cytochrome p450 3A = assay: Cytochrome p450 activity assay (P450-GLO) in hepatocytes, induction; format: cell-based, rat; details: controlled hemodynamics 0.6 dynes/cm^2, dexamethasone 02.5 μM, 48 hours, day 7; DMSO 11.64
Description: as §3, §4

primary rat hepatocytes = assay: Toxicity to hepatocytes cultured under controlled flow; details: 50 μM dexamethasone
Description: Cytochrome p450 assays were done on day 7 using commercially available P450-GLO kits. After 4 hours the media was transferred to 96-well plates and assayed for luminescent metabolites to reflect cytochrome p450 activity.

[12] = atheroprone hemodynamic environment

With high-density lipoprotein [HDL] the “activation of pro-inflammatory genes and proteins” value [1] was “blocking activation” and the atheroprotective genes [1] was “activates”.
For “Angiotensin II (DRVYIHPF; Angiotensin-2; UniProt P01019 25-32, looked up) [ANG2]”, the “inflammatory genes (gene array)” value [2] was “upregulated”.
In the case of “oxidized low-density lipoprotein [oxLDL]”, the “atheroprotective signaling (eNOS and KLF2) gene expression” value ([3]; atheroprone conditions) is reported as “reduced atheroprotective signaling”, the “HO-1 and ATF3 gene expression” value ([3]; atheroprone conditions compared to traditional static, oxLDL 10-50 μg/ml vs nLDL) is reported as “activates these genes at much higher levels” and the “inflammatory genes IL8 and E-Selectin (SELE) expression” value ([3]; atheroprone conditions, not regulated in static cultures) is reported as “activate”. The VCAM-1 protein expression [3, 12] was “elevated”, the “phosphorylation of eNOS” value [3, 12] was “reduced phosphorylation” and the “secreted cytokines IL6, IL8 and MCP-1” value [3, 12] was “increased levels”. The “number of genes regulated as compared to nLDL” value ([3]; endothelial cells, 5 donors) was 688 genes, the “number of genes regulated as compared to nLDL” value ([3]; smooth muscle cells, 4 donors) was 304 genes and the “NFκB activity (luciferase reporter)” value (NFκB; endothelial cells, atheroprone hemodynamics) was “further heightened”. The “NFκB signaling (luciferase reporter)” value (NFκB; smooth muscle cells, oxLDL added to upper volume only) was “elevated NFKB signaling”, the “eNOS gene expression (NOS3)” value (endothelial cells [4]; 50 μg/ml oxLDL) was “reduced” and the “E-Selectin (SELE) gene expression” value (endothelial cells [4]; 50 μg/ml oxLDL vs nLDL control) was “higher levels”.
With tumor necrosis factor-α [TNFα] the “fibrin deposition, mean fluorescence intensity” value (endothelial cells [5]; 1 ng/ml TNFα) was 1.17e5, the “fibrin deposition, mean fluorescence intensity” value (endothelial cells [5]; 10 ng/ml TNFα) was 2.69e7 and the “fibrin deposition, mean fluorescence intensity” value (endothelial cells [5]; 20 ng/ml TNFα) was 3.61e7. The “TNFα concentration needed for activation relative to physiological levels” value (endothelial cells [5]) was “approximately 200 fold”, the “Tissue Factor Pathway Inhibitor (TFPI) expression” value [6] was “reduces” and the “fibrin deposition, mean fluorescence intensity” value ([7]; 0.05 ng/ml TNFα, 24 hours, atheroprone hemodynamics from internal carotid sinus, Protocol A) was 1.9e7. For the same molecule, the “fold lower levels of TNFα inducing fibrin deposition as compared to static cultures” value ([7]; atheroprone hemodynamic priming) was 100- to 200 fold and the “inflammatory response (E-Selectin, ICAM, VCAM, IL8 expression)” value (endothelial cells [8]) was “induced an inflammatory response”.
For `CCc1ccc(CCOc2ccc(CC3SC(=O)NC3=O)cc2)nc1` (stereo not drawn) [Pioglitazone, pioglitazone], the “total triglyceride content of hepatocytes” value (hepatocytes [9]) was “reduced” and the “expression of metabolic genes such as Cyp3A2” value (hepatocytes [10]) was “restored”.
`Cc1ccc2cc3c(ccc4ccccc43)c3c2c1CC3` [3-MC, 3-Methyl Cholanthrene] was tested, and the “fold lower levels giving induction responses under controlled hemodynamics” value (cytochrome p450 1A/1B; compared to static (1 μM static, 0.1 μM controlled hemodynamics)) was 10 fold and the “1A/1B response to inducer (cytochrome p450 activity normalized to ATP)” value (cytochrome p450 1A/1B; controlled hemodynamics 0.6 dynes/cm^2, 3-MC 0.1 μM, 48 hours, day 7, DMSO 4.87) was 133.06.
For `C[C@]12CCC(=O)C=C1CC[C@@H]1[C@@H]2[C@@H](O)C[C@]2(C=O)[C@@H](C(=O)CO)CC[C@@H]12` [aldosterone, Aldosterone], the “inflammatory genes (gene array)” value [11] was “upregulated”.
In the case of `C[C@@H]1C[C@H]2[C@@H]3CCC4=CC(=O)C=C[C@]4(C)[C@@]3(F)[C@@H](O)C[C@]2(C)[C@@]1(O)C(=O)CO` [Dexamethasone, dexamethasone], the “3A response to inducer (cytochrome p450 activity normalized to ATP)” value (cytochrome p450 3A) is reported as 57.53 and the toxicity (primary rat hepatocytes) is reported as “toxic”.
